Where “and” joins values, the source holds several entries; their conditions need not be identical. Equal entries are not always repeated.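 96-well plates; 48 h exposure; 5 concentrations. Endpoints by linear interpolation between flanking doses. Not reached: highest tested concentration assigned. GI50 marks 50% less growth.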 Calls of active or inactive are those of the source. Cut-off read from the data, not from the text of the source: active = GI50 up to about 1.1 µM and inactive = higher.

Common to all, as to experiment: inhibition of tumour cell growth, NCI panel, 48 h
In assay [1] the test system is CAKI-1.
Assay [2] has as its system SK-MEL-5.
Assay [3] deals with DMS-114.
Assay [4] concerns SNB-78.
The subject of assay [5] is Malme-3M.
In assay [6] the test system is SW-620.
The subject of assay [7] is NCI-H460.
Assay [8] deals with NCI-H522.
Assay [9] deals with SNB-19.
Assay [10] relates to K562.
In assay [11] the test system is A549.
The subject of assay [12] is MOLT-4.
Assay [13] deals with HCT-15.
Assay [14] deals with A498.
Assay [15] relates to SR.
Assay [16] has as its system RXF 393.
In assay [17] the test system is RPMI-8226.
Assay [18] relates to HOP-92.
Assay [19] deals with SF-539.
The subject of assay [20] is NCI-H23.

As for `C/C(=N\N)C(CN1CCCCC1)C(c1ccccc1)c1c(O)c2ccccc2oc1=O` (stereo unspecified), the GI50 in assay [1] was > 100 µM (inactive); in [2] it was > 100 µM (inactive); in assay [3], > 100 µM (inactive); in assay [4], > 100 µM (inactive); in [5], > 87.7 µM (inactive); in [6], > 100 µM (inactive). Besides, the GI50 in assay [7] is > 100 µM (inactive); in assay [8], > 100 µM (inactive); in assay [9], > 100 µM (inactive); in [10], > 100 µM (inactive); in assay [11], > 100 µM (inactive); in [12] it was > 69.2 µM (inactive). Moreover, the GI50 in [13] is over 100 µM; in assay [14], > 100 µM (inactive); in assay [15], > 100 µM (inactive); in assay [16] it was > 54.1 µM (inactive); in [17], > 100 µM (inactive); in [18] it was 67 µM (inactive). Also, the GI50 in assay [19] and in assay [20] was > 100 µM (inactive) throughout.
Regarding `O=[N+]([O-])c1ccc(CNC2=NNS(=O)(=O)c3ccccc32)cc1`, the GI50 in [1] is 26.6 µM (inactive); in assay [2], > 100 µM (inactive); in assay [3] it was > 100 µM (inactive); in assay [4] it was > 100 µM (inactive); in [5] it was > 100 µM (inactive); in assay [6] it was > 100 µM (inactive). The GI50 in assay [7] is > 100 µM (inactive); in assay [9], > 100 µM (inactive); in assay [10] it was 27 µM (inactive); in assay [11], > 100 µM (inactive); in [12], 22.3 µM (inactive); in [13], 75.5 µM. Moreover, the GI50 in [14] was 32.1 µM (inactive); in assay [15], 31.6 µM (inactive); in assay [16], > 100 µM (inactive); in assay [17], 34.5 µM (inactive); in assay [18] it was > 100 µM (inactive); in assay [19] it was > 100 µM (inactive).
With `Cc1nc(Nc2nnc(-c3cc([N+](=O)[O-])cc([N+](=O)[O-])c3C)o2)sc1C(=O)CC(=O)Cc1nc2ccc(Cl)cc2nc1O`, the GI50 in assay [1] was > 100 µM (inactive); in assay [2], > 100 µM (inactive); in assay [3], > 100 µM (inactive); in [4] it was 93.5 µM (inactive); in assay [6], > 100 µM (inactive); in assay [7], > 100 µM (inactive). Moreover, the GI50 in assay [8] is 61.4 µM (inactive); in [9] it was > 100 µM (inactive); in assay [10] it was 41.8 µM (inactive); in assay [11], > 100 µM (inactive); in assay [12] it was > 100 µM (inactive); in assay [13], over 100 µM. Besides, the GI50 in assay [14] is > 100 µM (inactive); in assay [15], 77.6 µM (inactive); in assay [16] it was > 100 µM (inactive); in assay [17], > 100 µM (inactive); in [18] it was > 100 µM (inactive); in [19], > 100 µM (inactive). For the same molecule, the GI50 in [20] was > 100 µM (inactive).
For `CN(C)C(=S)/N=c1\ss/c(=N\C(=S)N(C)C)n1C1CCCCC1`, the GI50 in assay [1] was > 100 µM (inactive); in [2], 2.29 µM (inactive); in assay [3] it was 0.452 µM (active); in [4], 49.4 µM (inactive); in assay [5], > 100 µM (inactive); in [6] it was > 100 µM (inactive). For the same molecule, the GI50 is 0.515 µM (active) in assay [7]; 25.5 µM (inactive) in assay [8]; 22 µM (inactive) in [9]; 28.1 µM (inactive) in [10]; > 100 µM (inactive) in assay [11]; 80.2 µM (inactive) in [12]. Besides, the GI50 in assay [13] was over 100 µM; in [14], > 100 µM (inactive); in assay [15], > 100 µM (inactive); in [16], > 100 µM (inactive); in assay [17] it was 25.5 µM (inactive); in [19], > 100 µM (inactive). Further, the GI50 in assay [20] is 63.2 µM (inactive).
Regarding `[N-]=[N+]=NC1(Cc2ccccc2)C(=O)Nc2ccccc2C1=O` (stereo unspecified), the GI50 in [1] is > 100 µM (inactive); in assay [2] it was > 100 µM (inactive); in assay [3] it was > 100 µM (inactive); in assay [4], 52.8 µM (inactive); in [5], > 100 µM (inactive); in [6] it was > 100 µM (inactive). Besides, the GI50 in [7] was > 100 µM (inactive); in [8], 87.1 µM (inactive); in [9], > 100 µM (inactive); in [10] it was > 100 µM (inactive); in [11] it was > 100 µM (inactive); in assay [12], > 100 µM (inactive). The GI50 in [13] was over 100 µM; in assay [14], > 100 µM (inactive); in assay [15], > 100 µM (inactive); in [18], > 100 µM (inactive); in assay [19], > 100 µM (inactive); in [20], > 100 µM (inactive).
`CC#CC#C/C=C1\C=CC2(OC=CC2OC(C)=O)O1` (stereo unspecified): the GI50 was 15.2 µM (inactive) and > 10 µM (inactive) in assay [1]; 17.9 µM (inactive) in assay [2]; 18.2 µM (inactive) in assay [3]; 10.4 µM (inactive) in assay [4]; 24.8 µM (inactive) and 26.4 µM (inactive) in [5]; 24.8 µM (inactive) and 18.8 µM (inactive) in assay [6]. The GI50 in assay [7] was 32.3 µM (inactive) and 21.7 µM (inactive); in assay [9], > 100 µM (inactive) and > 82.2 µM (inactive); in assay [10] it was 25.6 µM (inactive) and 19 µM (inactive); in assay [11], 35.2 µM (inactive) and 32.7 µM (inactive); in [14] it was 47.6 µM (inactive) and 80.9 µM (inactive); in [15] it was 17.6 µM (inactive) and 15.3 µM (inactive). Further, the GI50 in [16] is 12.6 µM (inactive); in [17], 23.2 µM (inactive); in [18], 20.6 µM (inactive) and 22.3 µM (inactive); in [19], 25.5 µM (inactive) and 20.7 µM (inactive); in assay [20] it was 15 µM (inactive) and 11 µM (inactive).

The values above are taken from ChEMBL document CHEMBL1201862, “PubChem BioAssay data set” (2004).
